Measurements published in US6403831B1, “Substituted benzylidene indenyl formamides, acetamides and propionamides” (Cell Pathways, Inc., priority 1996, dated 2002).

The molecules below were run against T1, COX I (Ovis aries, UniProt P05979) (assay: Cyclooxygenase (COX) inhibition, purified COX). Details: 100 μM test compound; purified COX from ram seminal vesicles, arachidonic acid 100 μM.
T1 construct: The COX was purified form ram seminal vesicles; from tissue; host or cells: ram seminal vesicles
T1 sequence (P05979 25-600): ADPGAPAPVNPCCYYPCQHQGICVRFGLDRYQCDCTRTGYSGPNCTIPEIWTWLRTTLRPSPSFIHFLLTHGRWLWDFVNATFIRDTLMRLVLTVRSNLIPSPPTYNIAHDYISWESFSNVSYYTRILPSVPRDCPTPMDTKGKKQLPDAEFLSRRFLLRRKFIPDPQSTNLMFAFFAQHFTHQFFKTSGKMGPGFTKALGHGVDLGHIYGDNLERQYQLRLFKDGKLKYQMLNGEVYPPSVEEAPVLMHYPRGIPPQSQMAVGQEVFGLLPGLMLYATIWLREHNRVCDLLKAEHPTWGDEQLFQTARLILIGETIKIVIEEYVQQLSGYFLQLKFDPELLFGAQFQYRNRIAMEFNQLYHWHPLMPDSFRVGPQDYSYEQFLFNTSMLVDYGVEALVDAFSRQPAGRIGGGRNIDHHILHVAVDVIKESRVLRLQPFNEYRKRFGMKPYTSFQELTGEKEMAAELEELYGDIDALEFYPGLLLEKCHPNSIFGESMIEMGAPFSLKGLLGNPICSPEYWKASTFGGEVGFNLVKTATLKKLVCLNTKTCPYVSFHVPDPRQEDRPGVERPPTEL
Format: biochemical
Method: Compounds of this invention, as well as a positive control, sulindac sulfide were to determine whether they inhibited the production of cyclooxygenase (see Table 5 below).
COX catalyzes the formation of prostaglandins and thromboxane by the oxidative metabolism of arachidonic acid. The compounds of this invention were evaluated for inhibitory effects on purified COX. The COX was purified form ram seminal vesicles, as described by Boopathy, R. and Balasubramanian, J. 239:371-377, 1988. COX activity was assayed as described by Evans, A. T., et al., “Actions of cannabis constituents on enzymes of arachidonate metabolism anti-flammatory potential,” Biochem. Pharmacol., 36:2035-2037, 1987. Briefly, purified COX was incubated with arachidonic acid (100 μM) for 2.0 min at 37° C. in the presence or absence of test compounds. The assay was terminated buy the addition of TCA, and COX activity was determined by absorbance at 530 nm.

| SMILES | COX I % Inhibition (100 μM) |
| --- | --- |
| COc1cc(/C=C2/C(C)=C(CC(=O)NCc3cccnc3)c3cc(F)ccc32)cc(OC)c1OC [Example 49, (Z)-5 fluoro-2-methyl-1-(3,4,5 trimetboxybenzylidene)-3-(N-3-pyridinyl)-idenylacetamide] | 25% |
| COc1cccc(CNC(=O)CC2=C(C)/C(=C/c3cc(OC)c(OC)c(OC)c3)c3ccc(F)cc32)c1OC [Example 18, (Z)-5 fluoro-2-methyl-1-(3,4,5-trimethoxybenzylidene)-3-(N-2,3-dimethoxybenzyl)-indenylacetamide] | <25% |
| COc1cc(/C=C2/C(C)=C(CC(=O)NCc3cccc(Cl)c3)c3cc(F)ccc32)cc(OC)c1OC [Example 3] | <35% |
| COc1cc(/C=C2/C(C)=C(CC(=O)NCc3ccc(F)cc3F)c3cc(F)ccc32)cc(OC)c1OC [Example 6, (Z)-5-fluoro-2-methyl-1-(3,4,5-trimethoxybenzylidene)-3-(N-2,4-difluorobenzyl)-indenylacetamide] | <25% |
| COc1cc(/C=C2/C(C)=C(CC(=O)NCC3CC3)c3cc(F)ccc32)cc(OC)c1OC [Example 30, (Z)-5-fluoro-2-methyl-1-(3,4,5-trimethoxybenzylidene)-3-(N-cyclopropylmethyl)-indenylacetamide] | <25% |
| COc1cc(/C=C2/C(C)=C(CC(=O)NCc3ccco3)c3cc(F)ccc32)cc(OC)c1OC [Example 29, (Z)-5-fluoro-2-methyl-1-(3,4,5-trimethoxybenzylidene)-3-(N-furfuryl)-indenylacetamide] | <25% |
| COc1cc(CNC(=O)CC2=C(C)/C(=C/c3cc(OC)c(OC)c(OC)c3)c3ccc(F)cc32)cc(OC)c1 [Example 16, (Z)-5-fluoro-2-methyl-1-(3,4,5-trimethoxybenzylidene)-3-(N-3,5-dimethoxybenzyl)-indenylacetamide] | <25% |
| COc1cc(/C=C2/C(C)=C(CC(=O)NCc3ccc(S(N)(=O)=O)cc3)c3cc(F)ccc32)cc(OC)c1OC [Example 20, (Z)-5-fluoro-2-methyl-1-(3,4,5-trimethoxybenzylidene)-3-(N-4-sulfonamidobenzyl)-indenylacetamide] | 36.5% |
| COc1cc(/C=C2/C(C)=C(CC(=O)NCc3cccc(F)c3)c3cc(F)ccc32)cc(OC)c1OC [Example 7, (Z)-5-fluoro-2-methyl-1-(3,4,5-trimethoxybenzylidene)-3-(N-3-fluorobenzyl)-indenylacetamide] | <25% |
| CCN(CC)C(=O)CC1=C(C)/C(=C/c2cc(OC)c(OC)c(OC)c2)c2ccc(F)cc21 [Example 24, (Z)-5-fluoro-2-methyl-1-(3,4,5 trimethoxybenzylidene)-3-(N,N-diethyl)-indenylacetamide] | <25% |
| COc1cc(/C=C2/C(C)=C(CC(=O)NCc3ccncc3)c3cc(F)ccc32)cc(OC)c1OC [Example 50] | 29.2% |
| COc1cc(/C=C2/C(C)=C(CC(=O)NCc3ccc(F)c(F)c3)c3cc(F)ccc32)cc(OC)c1OC [Example 9, (Z)-5-fluoro-2-methyl-1-(3,4,5-trimethoxybenzylidene)-3-(N-3,4-difluorobenzyl)-indenylacetamide] | <25% |
| COc1ccc(CNC(=O)CC2=C(C)/C(=C/c3cc(OC)c(OC)c(OC)c3)c3ccc(F)cc32)cc1OC [Example 17, (Z)-5-fluoro-2-methyl-1-(3,4,5-trimethoxybenzylidene)-3-(N-3,4-dimethoxybenzyl)-indenylacetamide] | <25% |
| COc1cc(/C=C2/C(C)=C(CC(=O)NC(C)(C)C)c3cc(F)ccc32)cc(OC)c1OC [Example 25, (Z)-5-fluoro-2-methyl-1-(3,4,5-trimethoxybenzylidene)-3-(N-tertbutyl)-indenylacetamide] | 25% |
| COc1cc(/C=C2/C(C)=C(CC(=O)N(C3CCCCC3)C3CCCCC3)c3cc(F)ccc32)cc(OC)c1OC [Example 26, (Z)-5-fluoro-2-methyl-1-(3,4,5-trimethoxybenzylidene)-3-(N,N-dicyc1ohexyl)-indenylacetamide] | 28.1% |
| COc1cc(/C=C2/C(C)=C(CC(=O)NCc3ccc(N(C)C)cc3)c3cc(F)ccc32)cc(OC)c1OC [Example 21, (Z)-5-fluoro-2-methyl-1-(3,4,5-trimethoxybenzylidene)-3-(N-4-(dimethylamino)-benzyl)-indenylacetamide] | 36.5% |
| COc1cc(/C=C2/C(C)=C(CC(=O)NCc3cc(F)cc(C(F)(F)F)c3)c3cc(F)ccc32)cc(OC)c1OC [Example 11, (Z)-5-fluoro-2-methyl-1-(3,4,5-trimethoxybenzylidene)-3-(N-3-fluoro-5-(trifluoromethyl)-benzyl)-indenylacetamide] | <25% |
| COc1cc(/C=C2/C(C)=C(CC(=O)NCc3cccc(I)c3)c3cc(F)ccc32)cc(OC)c1OC [Example 2, (Z)-5-fluoro-2-methyl-1-(3,4,5-trimethoxybenzylidene)-3-(N-3-iodobenzyl)-indenylacetamide] | <25% |
| COc1cc(/C=C2/C(C)=C(CC(=O)NCc3ccc(Cl)c(Cl)c3)c3cc(F)ccc32)cc(OC)c1OC [Example 5, (Z)-5-fluoro-2-methyl-1-(3,4,5-trimethoxybenzylidene)-3-(N-3,4-dichlorobenzyl)-indenylacetamide] | <25% |
| COc1ccc(CNC(=O)CC2=C(C)/C(=C/c3cc(OC)c(OC)c(OC)c3)c3ccc(F)cc32)cc1 [Example 14, (Z)-5-fluoro-2-methyl-1-(3,4,5-trimethoxybenzylidene)-3-(N-4-methoxybenzyl)-indenylacetamide] | <25% |
| COc1cc(/C=C2/C(C)=C(CC(=O)NCc3c(F)cccc3F)c3cc(F)ccc32)cc(OC)c1OC [Example 10, (Z)-5-fluoro-2-methyl-1-(3,4,5-trimethoxybenzylidene)-3-(N-2,6-difluorobenzyl)-indenylacetamide] | <25% |
| COc1cc(/C=C2\C(C)=C(CC(=O)NCc3ccccc3)c3cc(F)ccc32)cc(OC)c1OC [Example 52, (E)-5-Fluoro-2-methyl-1-(3,4,5-trimethoxybenzylidene)-3-(N-benzyl)-indenylacetamide] | <25% |
